Experimental data published in patent publication EP1938810A1, “AMELIORATING AGENT FOR METABOLIC SYNDROME” (FUJI CHEMICAL INDUSTRY CO., LTD., priority 2005, dated 2007).

Legend:
[1] = Change in body weight of rats under oral astaxanthin; format: in vivo, rat; conditions: for body weight: SHR/Ndmer rats
Experimental: (§1) Female 5 weeks old, metabolic syndrome model rats (SHR/Ndmer) (a product of Sankyo laboratories Co., Ltd.) were purchased and reared for about a week in a laboratory animals rearing room of a constant temperature (24 ± 1 °C), a constant humidity (54 ± 5 %) and a 12 hour light-dark cycle, and thereafter used for the experiment. Water and feed were provided ad lib to them. In the experiment, each group consists of 6 rats with proviso that 5 Wistar rats as normal group were used. Sample was orally administered to all rats in the afternoon.
(§2) • 1) Control group: olive oil was administered in an amount of 1 ml per 1 kg of body weight of rat. • 2) Astaxanthin 5 mg/Kg administration group: astaxanthin was administered in an amount of 5 mg in admixture with I ml of olive oil per 1 kg of body weight of rat. • 3) Astaxanthin 50 mg/Kg administration group: astaxanthin was administered in an amount of 50 mg in admixture with I ml of olive oil per 1 kg of body weight of rat. • 4) Normal group: olive oil was administered in an amount of 1 ml per 1 kg of body weight of Wister rat

[2] = background statement; cited from earlier work
[3] = tested on: metabolic syndrome model rats (SHR/Ndmer); test: Fasting blood glucose value; format: in vivo, rat; conditions: overnight fasting
Experimental: Water only was given to rats ad lib from the day before the measurement not so as to give any feed to them. In the afternoon, 0.5 U of insulin was injected to them in an amount of 1 ml per 1 kg of the body weight, and the exsanguinations were conducted at given times to measure the glucose concentration in blood using a Antisence Π (a product of Horive Ltd).
as §1, §2

[4] = tested on: metabolic syndrome model rats (SHR/Ndmer); test: Measurement of blood pressure (tail artery, plethysmography); format: in vivo, rat; conditions: for diastolic blood pressure / systolic blood pressure: SHR/Ndmer rats
Experimental: Rats were broken in the apparatus since a week ago from the beginning of the experiment. They were bound slightly under a non-anesthetic and cuff with a built-in infrared sensor (THC-1, a product of Softron Co., Ltd. was applied to the tail artery to measure pressure (maximum, minimum and an average blood pressures) by a plethysmography. The measurement of blood pressure was conducted in the afternoon.
as §1, §2

[5] = tested on: metabolic syndrome model rats (SHR/Ndmer); test: Blood glucose value after insulin injection (insulin resistance test); format: in vivo, rat; conditions: for blood glucose value after insulin infection: SHR/Ndmer rats, fasted, 120 minutes after 0.5U insulin
Experimental: Water only was given to rats ad lib from the day before the measurement not so as to give any feed to them. In the afternoon, 0.5 U of insulin was injected to them in an amount of 1 ml per 1 kg of the body weight, and the exsanguinations were conducted at given times to measure the glucose concentration in blood using a […] Π (a product of Horive Ltd). Female 5 weeks old, metabolic syndrome model rats ([…] product of Sankyo laboratories Co., Ltd.) were purchased and reared for about a week in a laboratory animals rearing room of a constant temperature (24 ± 1 °C), a constant humidity (54 ± 5 %) and a 12 hour light-dark cycle, and thereafter used for the experiment. Water and feed were provided ad lib to them. In the experiment, each group consists of 6 rats with proviso that 5 Wistar rats as normal group were used. Sample was orally administered to all rats in the afternoon. • 1) Control group: olive oil was administered in an amount of 1 ml per 1 kg of body weight of rat. • 2) Astaxanthin 5 mg/Kg administration group: astaxanthin was administered in an amount of 5 mg in admixture with I ml of olive oil per 1 kg of body weight of rat. • 3) Astaxanthin 50 mg/Kg administration group: astaxanthin was administered in an amount of 50 mg in admixture with I ml of olive oil per 1 kg of body weight of rat. • 4) Normal group: olive oil was administered in an amount of 1 ml per 1 kg of body weight of Wister rat

[6] = tested on: metabolic syndrome model rats (SHR/Ndmer); test: Measurement of adiponectin in blood (ELISA); format: in vivo, rat; conditions: for blood adiponectin concentration: Ax 50 mg/kg oral, SHR/Ndmer rats
Experimental: I ml of blood was exsanguinated from a rat. After centrifugation, the obtained supernatant was subjected to ELISA kit for measuring adiponectin (Otsuka Pharmaceutical Inc.) to measure the adiponectin concentration in blood
as §1, §2

[7] = tested on: metabolic syndrome model rats (SHR/Ndmer); test: Measurement of fat in blood (triglyceride G test); format: in vivo, rat; conditions: for blood fat: Ax 50 mg/kg oral, SHR/Ndmer rats
Experimental: The supernatant formed after centrifugation was subjected to the triglyceride G test using an enzyme (a product of Wako Pure Chemical Industries, Ltd.) to measure the fat concentration in blood.
as §1, §2

[8] = Ax 5 mg/kg oral, at 6 weeks old
[9] = Ax 5 mg/kg oral, at 9 weeks old
[10] = Ax 5 mg/kg oral, at 17 weeks old
[11] = Ax 50 mg/kg oral, at 6 weeks old
[12] = Ax 50 mg/kg oral, at 9 weeks old
[13] = Ax 50 mg/kg oral, at 17 weeks old
[14] = Ax 5 mg/kg oral, at 7 weeks old
[15] = Ax 5 mg/kg oral, at 12 weeks old
[16] = Ax 50 mg/kg oral, at 7 weeks old
[17] = Ax 50 mg/kg oral, at 12 weeks old
[18] = Ax 5 mg/kg oral, at 24 weeks old
[19] = Ax 50 mg/kg oral, at 24 weeks old

Compound CC1=C(/C=C/C(C)=C/C=C/C(C)=C/C=C/C=C(C)/C=C/C=C(C)/C=C/C2=C(C)C(=O)C(O)CC2(C)C)C(C)(C)CC(O)C1=O (stereo not drawn) [Ax, 3,3'-dihydroxy-β, β-carotene-4, 4'-dione] has a body weight [1, 8] of 156 g, a body weight [1, 9] of 259 g and a body weight ([1]; Ax 5 mg/kg oral, at 13 weeks old) of 378 g. The body weight [1, 10] was 468 g, the body weight [1, 11] was 148 g and the body weight [1, 12] was 250 g. For the same compound, the body weight ([1]; Ax 50 mg/kg oral, at 13 weeks old) was 368 g, the body weight [1, 13] was 459 g and the “change in the body weight (in words)” value ([1]; administration of astaxanthin, summary of Table 1) was “no change in the body weight”. The “antioxidative action relative to vitamin E (α-tocopherol)” value [2] was “about 1000 times”, the “antioxidative action relative to β-carotene” value [2] was “about 40 times” and the “fasting blood glucose value” [3, 14] was 132.0 mg/dL. The “fasting blood glucose value” [3, 9] was 98.0 mg/dL, the “fasting blood glucose value” [3, 15] was 88.3 mg/dL and the “fasting blood glucose value” [3, 10] was 108.8 mg/dL. For the same compound, the “fasting blood glucose value” [3, 16] was 135.0 mg/dL, the “fasting blood glucose value” [3, 12] was 109.0 mg/dL and the “fasting blood glucose value” [3, 17] was 89.3 mg/dL. For the same compound, the “fasting blood glucose value” [3, 13] was 111.8 mg/dL, the diastolic blood pressure [4, 8] was 121 mmHG and the systolic blood pressure [4, 8] was 144 mmHG. For the same compound, the diastolic blood pressure [4, 9] was 130 mmHG, the systolic blood pressure [4, 9] was 161 mmHG and the diastolic blood pressure [4, 15] was 129 mmHG. For the same compound, the systolic blood pressure [4, 15] was 159 mmHG, the diastolic blood pressure [4, 18] was 155 mmHG and the systolic blood pressure [4, 18] was 185 mmHG. The diastolic blood pressure [4, 11] was 121 mmHG, the systolic blood pressure [4, 11] was 147 mmHG and the diastolic blood pressure [4, 12] was 128 mmHG. The systolic blood pressure [4, 12] was 160 mmHG, the diastolic blood pressure [4, 17] was 119 mmHG and the systolic blood pressure [4, 17] was 154 mmHG. The diastolic blood pressure [4, 19] was 156 mmHG, the systolic blood pressure [4, 19] was 189 mmHG and the “rise in blood pressure (in words)” value ([4]; administration of astaxanthin, summary of Tables 2 and 3) was “suppresses the rise in blood pressure”. For the same compound, the “blood glucose value after insulin infection” value [5, 14] was 98.0 mg/dL, the “blood glucose value after insulin infection” value [5, 9] was 85.6 mg/dL and the “blood glucose value after insulin infection” value [5, 15] was 81.5 mg/dL. The “blood glucose value after insulin infection” value [5, 10] was 82.2 mg/dL, the “blood glucose value after insulin infection” value [5, 16] was 106.3 mg/dL and the “blood glucose value after insulin infection” value [5, 12] was 81.0 mg/dL. The “blood glucose value after insulin infection” value [5, 17] was 73.8 mg/dL, the “blood glucose value after insulin infection” value [5, 13] was 72.0 mg/dL and the “insulin resistance (in words)” value ([5]; administration of astaxanthin, summary of Table 5) was “significantly improved”. For the same compound, the blood adiponectin concentration ([6]; at 7 weeks old) was 7.08 ± 0.43 µg/mL, the blood adiponectin concentration ([6]; at 12 weeks old) was 8.21 ± 0.14 µg/mL and the “adiponectin concentration in blood (in words)” value ([6]; administration of astaxanthin, summary of Table 7) was “increased in comparison with the control group”. For the same compound, the blood fat ([7]; at 7 weeks old) was 139.5 ± 15.9 mg/dL, the blood fat ([7]; at 12 weeks old) was 304.8 ± 9.9 mg/dL and the “increase in the blood fat with the passage of time (in words)” value ([7]; SHR/Ndmer, versus control group, summary of Table 6) was “suppresses the increase in the blood fat”.
